Reference: patent publication EP0358085A1, “(1R,5S,6S)-6-[(R)-1-Hydroxyethyl]-1-methyl-2-[(1-alkyl-1,2,4-triazolium-2-yl)alkyl]-thio-carbapenem-3-carboxylic acid derivatives” (LEDERLE (JAPAN) LTD., priority 1988, dated 1990)
Values after ≈ are worked out from the molar mass of the structure shown. Read-outs that look alike come from different tables or passages of the source.

Tests used:
[1] = target: T1, Swine Kidney Dehydropeptidase-I (DHP-I) (Sus scrofa, UniProt P22412); test: Hydrolysis activity against DHP-I enzyme substrate by late assay (decrease in absorbency); type: biochemical; settings: final substrate concentration 100µM; 37°C, 10 minutes; pH 7.1
T1 construct: made soluble by treatment with butanol and purified by the ammonium sulfate fraction method, thereby producing DHP-I enzyme; from tissue; host or cells: swine kidney
Protocol: The swine kidney (8 kg) was homogenized and the enzyme protein was allowed to precipitate. After a connective lipid was removed with acetone, the resultant material was made soluble by treatment with butanol and purified by the ammonium sulfate fraction method, thereby producing DHP-I enzyme from a 75 % ammonium sulfate fraction. The DHP-I enzyme was then adjusted to give an enzyme concentration of 25 mg/10 ml (phosphate buffer, pH 7.1), and divided into 1 ml portions. The portions were frozen and stored at -40°C or less until use. Glycyl dehydrophenylalanine (Gl-dh-Ph) and imipenem were employed as control compounds, and they were adjusted in situ each to give a concentration of 117µM with the same sodium phosphate buffer solution. […] The solution was then incubated at 37°C for 10 minutes. The initial velocity of hydrolysis of the substrate was measured from a decrease in absorbency at a particular λmax of each of the substrates. A blank test was conducted in substantially the same manner as above by adding 0.2 ml of the sodium phosphate buffer solution (pH 7.1) to 1.2 ml of the above substrate.

[2] = tested on: male mice of CrjCD(SD) strain; test: Toxicity study in mice, subcutaneous administration, observation for one week; type: in vivo; settings: 500 mg/kg, subcutaneously
Protocol: Toxicological studies were carried out using a group of 10 male mice of CrjCD(SD) strain weighing from 20 to 23 grams. A solution containing the carbapenem compound (11) of the present invention obtained by Example 3 was administered subcutaneously to the mice and subjected to observations for one week.

[3] = tested on: Serratia marcescens IAM1184; test: Antibacterial test, agar plate dilution method (MIC); type: cell-based; settings: MH agar, 37°C, 18 hours
Protocol: (§1) The antibacterial activities were tested by an agar plate dilution method in accordance with the standard method of The Japanese Chemotherapy Society [Chemotherapy, Vol. 29, 76-79 (1981)].
(§2) A Mueller-Hinton (MH) agar liquid medium of a test microorganism was cultured overnight at 37°C and the resultant culture medium was diluted with a buffered saline gelatin (BSG) solution to contain approximately 10⁶ cells of the test microorganisms per milliliter, and then the diluted solution was inoculated with a micro-planter at the rate of approximately 5 microliters on a MH agar medium containing a test compound. This medium was then incubated at 37°C for 18 hours. The minimum inhibitory concentration (MIC) is determined as a minimum concentration in which no test microorganism could grow. It is noted here that the test organisms used were all standard strains.

[4] = tested on: Proteus mirabilis IFO3849; test: as above; type: cell-based
Protocol: as §1, §2

[5] = tested on: Staphylococcus aureus Terajima; test: as above; type: cell-based; settings: MH agar, 37°C, 18 hours
Protocol: as §1, §2

[6] = tested on: Pseudomonas aeruginosa NCTC 10490; test: as above; type: cell-based; settings: NCTC10490, MH agar, 37°C, 18 hours
Protocol: as §1, §2

[7] = tested on: Klebsiella pneumoniae PCI-602; test: as above; type: cell-based; settings: PCI602, MH agar, 37°C, 18 hours
Protocol: as §1, §2

[8] = tested on: Morganella morganii IFO3848; test: as above; type: cell-based; settings: MH agar, 37°C, 18 hours
Protocol: as §1, §2

Salmonella typhi 901 = test: as above; type: cell-based; settings: Salmonella enterica, 18 h
Protocol: as §1, §2

Proteus vulgaris OX-19 = test: as above; type: cell-based; settings: OX19, MH agar, 37°C, 18 hours
Protocol: as §1, §2

[9] = tested on: Streptococcus pyogenes Cook; test: as above; type: cell-based; settings: MH agar, 37°C, 18 hours
Protocol: as §1, §2

[10] = tested on: Escherichia coli K12 C600; test: as above; type: cell-based; settings: K12C600, MH agar, 37°C, 18 hours
Protocol: as §1, §2

[11] = tested on: Salmonella typhimurium IID971; test: as above; type: cell-based; settings: Salmonella enterica, MH agar, 37°C, 18 hours
Protocol: as §1, §2

[12] = tested on: Salmonella schottmuelleri 8006; test: as above; type: cell-based; settings: MH agar, 37°C, 18 hours
Protocol: as §1, §2

Enterobacter cloacae 963 = test: as above; type: cell-based; settings: MH agar, 37°C, 18 hours
Protocol: as §1, §2

[13] = tested on: Salmonella enteritidis G14; test: as above; type: cell-based; settings: Salmonella enterica
Protocol: as §1, §2

[14] = tested on: Escherichia coli NIHJ JC-2; test: as above; type: cell-based; settings: NIHJJC2, MH agar, 37°C, 18 hours
Protocol: as §1, §2

[15] = tested on: Micrococcus luteus ATCC9341; test: as above; type: cell-based; settings: MH agar, 37°C, 18 hours
Protocol: as §1, §2

[16] = tested on: Pseudomonas aeruginosa IFO 3445; test: as above; type: cell-based; settings: IFO3445, MH agar, 37°C, 18 hours
Protocol: as §1, §2

[17] = tested on: Enterobacter aerogenes ATCC1304; test: as above; type: cell-based; settings: Klebsiella aerogenes
Protocol: as §1, §2

[18] = tested on: Staphylococcus aureus MS353; test: as above; type: cell-based; settings: MH agar, 37°C, 18 hours
Protocol: as §1, §2

[19] = tested on: Bacillus subtilis ATCC6633; test: as above; type: cell-based; settings: MH agar, 37°C, 18 hours
Protocol: as §1, §2

[20] = tested on: Staphylococcus aureus FDA 209PJC-1; test: as above; type: cell-based; settings: FDA209PJC1, MH agar, 37°C, 18 hours
Protocol: as §1, §2

[21] = tested on: Salmonella paratyphi 1015; test: as above; type: cell-based; settings: Salmonella enterica, MH agar, 37°C, 18 hours
Protocol: as §1, §2

Proteus vulgaris HX-19 = test: as above; type: cell-based; settings: HX19, MH agar, 37°C, 18 hours
Protocol: as §1, §2

[22] = tested on: Providencia rettgeri IFO 3850; test: as above; type: cell-based; settings: IFO3850, MH agar, 37°C, 18 hours
Protocol: as §1, §2

[23] = target: T1, Swine Kidney Dehydropeptidase-I (DHP-I); test: Stability of test compounds against DHP-I by HPLC; type: in vitro ADME; settings: 37°C, 4.5 hours, Substrate Concentration: 100 µM
Protocol: The swine kidney (8 kg) was homogenized and the enzyme protein was allowed to precipitate. After a connective lipid was removed with acetone, the resultant material was made soluble by treatment with butanol and purified by the ammonium sulfate fraction method, thereby producing DHP-I enzyme from a 75 % ammonium sulfate fraction. The DHP-I enzyme was then adjusted to give an enzyme concentration of 25 mg/10 ml (phosphate buffer, pH 7.1), and divided into 1 ml portions. The portions were frozen and stored at -40°C or less until use. The test compound was adjusted in situ to give a concentration of 117µM with a 50 mM sodium phosphate buffer solution (pH =7.1). Glycyl dehydrophenylalanine (Gl-dh-Ph) and imipenem were employed as control compounds, and they were adjusted in situ each to give a concentration of 117µM with the same sodium phosphate buffer solution. The test compound according to the present invention and the control compounds were treated in substantially the same manner as (1) above. The incubation, however, was conducted at 37°C for 4.5 hours or for 24 hours. The degree of hydrolysis of the compounds each after the test periods was measured by the HPLC method.

T1 sequence (P22412 17-384): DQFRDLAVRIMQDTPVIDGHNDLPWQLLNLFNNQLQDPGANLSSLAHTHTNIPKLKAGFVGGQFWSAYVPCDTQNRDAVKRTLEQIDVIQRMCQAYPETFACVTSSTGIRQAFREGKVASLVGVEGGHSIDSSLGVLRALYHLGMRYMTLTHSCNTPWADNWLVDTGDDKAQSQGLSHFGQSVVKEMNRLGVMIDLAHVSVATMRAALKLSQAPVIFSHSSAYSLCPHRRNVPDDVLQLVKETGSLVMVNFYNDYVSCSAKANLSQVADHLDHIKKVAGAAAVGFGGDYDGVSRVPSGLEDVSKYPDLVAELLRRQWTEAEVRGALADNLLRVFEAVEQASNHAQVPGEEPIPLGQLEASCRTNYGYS

SMILES	initial velocity of hydrolysis [1] [µM/min]	MIC [3] [µg/mL]	MIC [5] [µg/mL]	MIC [6] [µg/mL]	MIC [7] [µg/mL]	MIC [8] [µg/mL]	MIC (Salmonella typhi 901) [µg/mL]	MIC (Proteus vulgaris OX-19) [µg/mL]	MIC [9] [µg/mL]	MIC [10] [µg/mL]	MIC [11] [µg/mL]	MIC [12] [µg/mL]	MIC (Enterobacter cloacae 963) [µg/mL]	MIC [14] [µg/mL]	MIC [15] [µg/mL]	MIC [16] [µg/mL]	MIC [18] [µg/mL]	MIC [19] [µg/mL]	MIC [20] [µg/mL]	MIC [21] [µg/mL]	other results
NCC(=O)NC(=Cc1ccccc1)C(=O)O [Gl-dh-Ph, Glycyl dehydrophenylalanine]	17.4																				
C[C@@H](O)[C@H]1C(=O)N2C(C(=O)[O-])=C(SCCn3cnc[n+]3C)[C@H](C)[C@H]12 [Compound (11), (1R,5S,6S)-6-[(R)-1-hydroxyethyl]-1-methyl-2-[2-(1-methyl-1,2,4-triazolium-2-yl)ethyl]thio-carbapenem-3-carboxylate]		0.2 (≈ 0.568 µM)	0.025 (≈ 0.0709 µM)	0.78 (≈ 2.21 µM)	0.2 (≈ 0.568 µM)	0.39 (≈ 1.11 µM)	0.05 (≈ 0.142 µM)	0.78 (≈ 2.21 µM)	0.05 (≈ 0.142 µM)	0.78 (≈ 2.21 µM)	0.2 (≈ 0.568 µM)	0.39 (≈ 1.11 µM)	0.1 (≈ 0.284 µM)	0.1 (≈ 0.284 µM)	0.1 (≈ 0.284 µM)	1.56 (≈ 4.43 µM)	0.05 (≈ 0.142 µM)	0.2 (≈ 0.568 µM)	0.1 (≈ 0.284 µM)	0.78 (≈ 2.21 µM)	toxicity: survival and abnormal observations [2]: alive without any abnormal observations; MIC ([4]; Proteus mirabilis IFO3849, MH agar, 37°C, 18 hours, read-out: MIC): 1.56 µg/mL (≈ 4.43 µM); MIC ([13]; Salmonella enteritidis G14, MH agar, 37°C, 18 hours, read-out: MIC): 0.78 µg/mL (≈ 2.21 µM); MIC ([17]; Enterobacter aerogenes ATCC1304, MH agar, 37°C, 18 hours, read-out: MIC): 0.78 µg/mL (≈ 2.21 µM); MIC (Proteus vulgaris HX-19): 0.78 µg/mL (≈ 2.21 µM); MIC [22]: 0.05 µg/mL (≈ 0.142 µM)
C[C@@H](O)[C@H]1C(=O)N2C(C(=O)O)=C(SCCNC=N)C[C@H]12 [Imipenem, imipenem]	0.56	0.2 (≈ 0.668 µM)	< 0.006	0.39 (≈ 1.3 µM)	0.2 (≈ 0.668 µM)	3.13 (≈ 10.5 µM)	0.05 (≈ 0.167 µM)	3.13 (≈ 10.5 µM)	< 0.006	3.13 (≈ 10.5 µM)	0.2 (≈ 0.668 µM)	0.78 (≈ 2.61 µM)	0.78 (≈ 2.61 µM)	0.1 (≈ 0.334 µM)	< 0.006	0.78 (≈ 2.61 µM)	0.013 (≈ 0.0434 µM)	0.025 (≈ 0.0835 µM)	0.013 (≈ 0.0434 µM)	1.56 (≈ 5.21 µM)	DEGREES OF HYDROLYSIS BY DHP-I [23]: 77.6 µM; MIC ([4]; Proteus mirabilis, IFO3849, 18 h): 6.25 µg/mL (≈ 20.9 µM); MIC ([13]; ENTERITIDIS, 18 h): 1.56 µg/mL (≈ 5.21 µM); MIC ([17]; ATCC1304, 18 h): 1.56 µg/mL (≈ 5.21 µM); MIC (Proteus vulgaris HX-19): 3.13 µg/mL (≈ 10.5 µM); MIC [22]: 0.05 µg/mL (≈ 0.167 µM)
